Test results reported in ChEMBL document CHEMBL1136058, “4-Anilino-3-cyanobenzo[g]quinolines as kinase inhibitors” (Bioorg Med Chem Lett, 2002).

What was measured:
[1] = molecular target: Epidermal growth factor receptor (Homo sapiens, UniProt P00533); assay: Inhibition of epidermal growth factor receptor (EGFR)
[2] = tested on: SW-620; assay: Inhibition of SW620 cell proliferation; details: Homo sapiens
[3] = molecular target: T1, Proto-oncogene tyrosine-protein kinase Src (Homo sapiens, UniProt P12931); assay: Inhibition of Src protein tyrosine kinase at 0.1 uM
[4] = molecular target: T1, Proto-oncogene tyrosine-protein kinase Src; assay: Inhibition of Src protein tyrosine kinase at 0.01 uM
[5] = molecular target: Dual specificity mitogen-activated protein kinase kinase 1 (Homo sapiens, UniProt Q02750); assay: Inhibition of Dual specificity mitogen-activated protein kinase kinase (MEK-1)
[6] = tested on: LoVo; assay: Inhibition of LOVO cell proliferation; details: Homo sapiens
[7] = molecular target: T1, Proto-oncogene tyrosine-protein kinase Src

T1 sequence (P12931 2-536 limits assumed): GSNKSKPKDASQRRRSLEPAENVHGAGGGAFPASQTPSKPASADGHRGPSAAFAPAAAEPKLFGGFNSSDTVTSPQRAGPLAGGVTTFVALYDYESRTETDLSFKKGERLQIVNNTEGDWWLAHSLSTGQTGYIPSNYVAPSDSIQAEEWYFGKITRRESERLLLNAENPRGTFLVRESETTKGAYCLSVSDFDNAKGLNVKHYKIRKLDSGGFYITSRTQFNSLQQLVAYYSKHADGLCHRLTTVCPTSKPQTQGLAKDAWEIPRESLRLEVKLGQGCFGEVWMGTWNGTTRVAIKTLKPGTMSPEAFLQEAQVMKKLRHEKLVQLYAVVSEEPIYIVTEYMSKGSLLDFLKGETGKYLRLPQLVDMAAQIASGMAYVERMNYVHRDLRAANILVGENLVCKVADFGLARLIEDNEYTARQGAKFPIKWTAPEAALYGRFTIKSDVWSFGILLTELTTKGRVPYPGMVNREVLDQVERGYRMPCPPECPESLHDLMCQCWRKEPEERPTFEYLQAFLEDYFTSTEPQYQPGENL
Chain of Dual specificity mitogen-activated protein kinase kinase 1 (Q02750 whole entry): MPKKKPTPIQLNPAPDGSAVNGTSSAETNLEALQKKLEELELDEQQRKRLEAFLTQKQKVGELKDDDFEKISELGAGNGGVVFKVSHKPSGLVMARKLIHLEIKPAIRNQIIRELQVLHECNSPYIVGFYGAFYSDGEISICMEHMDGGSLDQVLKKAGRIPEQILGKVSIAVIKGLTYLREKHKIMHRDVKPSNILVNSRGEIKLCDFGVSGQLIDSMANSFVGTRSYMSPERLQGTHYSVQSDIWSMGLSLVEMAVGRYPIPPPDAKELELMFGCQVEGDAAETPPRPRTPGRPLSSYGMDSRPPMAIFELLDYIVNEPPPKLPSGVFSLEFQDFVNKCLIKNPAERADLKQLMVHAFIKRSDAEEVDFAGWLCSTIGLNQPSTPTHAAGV
Chain of Epidermal growth factor receptor (P00533 whole entry): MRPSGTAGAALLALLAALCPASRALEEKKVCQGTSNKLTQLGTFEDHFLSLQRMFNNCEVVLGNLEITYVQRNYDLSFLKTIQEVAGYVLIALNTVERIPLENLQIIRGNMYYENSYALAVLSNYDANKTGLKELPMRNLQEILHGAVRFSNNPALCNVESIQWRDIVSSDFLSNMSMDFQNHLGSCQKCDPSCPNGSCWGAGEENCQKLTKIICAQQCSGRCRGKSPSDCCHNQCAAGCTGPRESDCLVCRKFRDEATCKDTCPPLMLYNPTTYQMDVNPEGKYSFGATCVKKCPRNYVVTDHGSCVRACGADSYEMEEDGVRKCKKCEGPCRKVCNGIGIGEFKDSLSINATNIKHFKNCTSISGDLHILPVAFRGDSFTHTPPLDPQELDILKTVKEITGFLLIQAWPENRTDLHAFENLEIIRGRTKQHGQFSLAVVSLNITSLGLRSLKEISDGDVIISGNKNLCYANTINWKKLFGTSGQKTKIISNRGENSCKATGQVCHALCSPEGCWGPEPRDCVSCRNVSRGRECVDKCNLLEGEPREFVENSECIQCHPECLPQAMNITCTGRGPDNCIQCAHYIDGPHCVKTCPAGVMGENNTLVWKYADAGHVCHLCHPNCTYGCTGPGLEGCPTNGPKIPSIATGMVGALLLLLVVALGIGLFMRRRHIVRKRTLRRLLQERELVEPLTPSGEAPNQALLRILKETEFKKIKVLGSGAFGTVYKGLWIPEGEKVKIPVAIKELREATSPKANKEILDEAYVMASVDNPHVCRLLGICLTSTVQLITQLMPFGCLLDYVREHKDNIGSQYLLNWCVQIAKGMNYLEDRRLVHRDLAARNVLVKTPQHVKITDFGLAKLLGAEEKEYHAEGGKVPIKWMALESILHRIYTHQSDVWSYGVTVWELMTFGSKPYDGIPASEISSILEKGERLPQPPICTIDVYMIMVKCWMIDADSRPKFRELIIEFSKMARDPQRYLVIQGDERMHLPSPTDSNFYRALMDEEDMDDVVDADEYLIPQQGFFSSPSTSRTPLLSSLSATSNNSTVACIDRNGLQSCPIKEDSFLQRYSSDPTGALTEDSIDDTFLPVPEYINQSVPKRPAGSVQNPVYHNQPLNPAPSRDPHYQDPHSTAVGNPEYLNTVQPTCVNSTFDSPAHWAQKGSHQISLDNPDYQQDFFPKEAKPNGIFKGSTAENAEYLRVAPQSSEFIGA

COc1cc2cc3ncc(C#N)c(Nc4ccc(F)c(Cl)c4)c3cc2cc1OC showed an IC50 [1] of 18000 nM and an IC50 [2] of 1990 nM.
COc1ccc2cc3c(Nc4ccc(Cl)cc4Cl)c(C#N)cnc3cc2c1 gave an inhibition [3] of 30%.
Molecule N#Cc1cnc2cc3cc(O)c(O)cc3cc2c1Nc1ccc(Cl)cc1Cl has an inhibition [4] of 10%.
COc1ccc2cc3ncc(C#N)c(Nc4ccc(Cl)cc4Cl)c3cc2c1 showed an inhibition [3] of 30%.
COc1cc2cc3ncc(C#N)c(Nc4ccc(Oc5ccccc5)cc4)c3cc2cc1OC showed an IC50 [5] of 10 nM and an IC50 [6] of 670 nM.
For COc1cc2ncc(C#N)c(Nc3ccc(Cl)cc3Cl)c2cc1OC, the IC50 [7] was 38 nM.
